Read-outs that look alike come from different tables or passages of the source.
Test system: HCMV
Type: cell-based
Experimental: In example herpesvirus PRM assay methods shown herein, cell pellets were lysed in 2% SDS, 100 mM NaCl, 0.5 mM EDTA, 50 mM Tris, pH 8.2, and 50 μg of protein was reduced and alkylated with 25 mM TCEP and 50 mM CAM respectively for 20 min at 70° C. Proteins were then precipitated via methanol chloroform precipitation (Wessel & Flugg, Anal Biochem. 138(1):141-143, 1984), resuspended in 50 mM HEPES, pH 8.2 and digested overnight with trypsin (50:1 protein:enzyme w/w ratio). Digested peptides were desalted by SDB-RPS StageTip as previously described (Lum et al., Cell Syst., 7(6):[…], 2018; Greco et al., Methods Mol Biol 1410:39-63, 2016; Federspiel & Cristea, Methods Mol Biol., 1977:115-143, 2019).
Peptides (1.0 μg on column) were analyzed by LC-MS/MS using a Dionex Ultimate 3000 UHPLC coupled online to an EASYSpray ion source and a Q Exactive HF. Peptides were separated on an EASYSpray C18 column (75 μm×25 cm) heated to 50° C. using a linear gradient of 5% B to 32% B over 60 min at a flow rate of 250 nL/min and were ionized at 1.7 kv. Mobile phase A consisted of 0.1% FA in H2O and mobile phase B consisted of 0.1% FA, 2.9% H2O in ACN.
The PRM method was controlled by a peptide inclusion list with retention time windows of 6 min for selected precursor ions.
The PRM assay was developed and analyzed using the open-source software Skyline (Maclean et al., Bioinformatics 26(7):966-968, 2010). Summed area under the curve of 3-4 transitions per peptide was used for quantitation. Targeted peptides were normalized to host protein loading control peptides. Peptide values for each sample were scaled to the average of each peptide across all runs. The average of multiple peptides was used as the inferred value for the protein measurement when more than one peptide was quantified (Federspiel et al., PLoS Biol. 17(9):e3000437. Doi: 10.1371/journal.pbio.3000437). PRM quantitation data were graphed using the Python Seaborn and Matplotlib libraries.
MRC5 primary human fibroblasts (HFs) (ATCC CCL-171) were used as the model system for HSV-1 and HCMV infections and were cultured in complete growth medium (DMEM supplemented with 10% fetal bovine serum and 1% penicillin-streptomycin antibiotics) at 37° C. and 5% CO2. iSLK.219 cells harboring latent KSHV (a gift from Dr. Britt Glaunsinger, University of California, Berkeley) were grown in complete growth medium supplemented with 500 μg/ml hygromycin (ThermoFisher Scientific, 10687010) at 37° C. and 5% CO2. All cells were used for experiments within a maximum of 10 passages.
Wild type HSV-1 strain 17+ (a gift from Beate Sodeik, Hannover Medical School, Hannover, Germany) was propagated as previously described (Diner et al., 2015). Briefly, PO stocks were generated by electroporating pBAC-HSV-1 into U-2 OS cells. […] In a similar manner, wild type HCMV strain AD169 was produced from BAC electroporation into HFs and working stocks were propagated by infecting HFs at a low level. In both cases, cell-associated virus was released by sonication, combined with supernatant virus, then concentrated by ultracentrifugation (20,000 rpm, 2 hours, 4° C. with SW28 swinging bucket rotor [Beckman Coulter]) over a 10% ficoll (HSV-1) or 20% sorbitol (HCMV) cushion. Virus stock titers were determined by plaque assay for HSV-1 or tissue culture infectious dose (TCID50) for HCMV and infections were performed at a multiplicity of infection (MOI) of 3.
12 hours prior to virus infection or reactivation, cells were treated with either the small molecule drug or DMSO/PBS control at an equivalent volume. […] For infection cycles lasting longer than 24 hours, small molecule drugs were re-added to the cell culture medium every 24 hours. Upon collection, cells were rinsed with PBS, scraped into a microcentrifuge tube, pelleted by centrifugation, and rinsed again with PBS.

Structure (SMILES): Nc1c(S(=O)(=O)c2ccccc2)c2nc3ccccc3nc2n1-c1ccc(F)cc1 [CAY10602]
- GO (P16750) protein level (timepoint 72, L): 0.05989
- IR11 (P16809) protein level (timepoint 72, L): 0.4344
- MCP (P16729) protein level (timepoint 72, L): 0.02624
- SCP (Q7M6N6) protein level (timepoint 72, L): 0.015
- TRM2 (P16792) protein level (timepoint 72, L): 0.0795
- UL22A (P16845) protein level (timepoint 72, L): 0.215
- UL25 (P16761) protein level (timepoint 72, L): 0.096
- UL29 (P16764) protein level (timepoint 72, L): 0.506
- UL30 (P16765) protein level (timepoint 72, L): 0.1431
- UL31 (P16848) protein level (timepoint 72, L): 0.1447
- UL43 (P16781) protein level (timepoint 72, L): 0.03176
- UL52 (P16793) protein level (timepoint 72, L): 0.1191
- UL76 (P16725) protein level (timepoint 72, L): 0.03192
- UL80 (P16753) protein level (timepoint 72, L): 0.06052
- UL82 (P06726) protein level (timepoint 72, L): 0.1042
- UL87 (P16730) protein level (timepoint 72, L): 0.09029
- UL88 (P16731) protein level (timepoint 72, L): 0.1686
- UL94 (P16800) protein level (timepoint 72, L): 0.1145
- UL99 (P13200) protein level (timepoint 72, L): 0.05513
- UL103 (P16734) protein level (timepoint 72, L): 0.09275
- UL117 (P16770) protein level (timepoint 72, L): 0.3151
- gH (P12824) protein level (timepoint 72, L): 0.1032
- gL (P16832) protein level (timepoint 72, L): 0.08246
- gM (P16733) protein level (timepoint 72, L): 0.06242
- gN (P16795) protein level (timepoint 72, L): 0.1122
- IR10 (P16808) protein level (timepoint 72, LL): 0.03558
- IR12 (P16810) protein level (timepoint 72, LL): 0.4497
- TRM3 (P16732) protein level (timepoint 72, LL): 0.03658
- TRX1 (P16783) protein level (timepoint 72, LL): 0.02099
- TRX2 (P16728) protein level (timepoint 72, LL): 0.02193
- UL24 (P16760) protein level (timepoint 72, LL): 0.1166
- UL40 (P16780) protein level (timepoint 72, LL): 0.4727
- UL47 (P16784) protein level (timepoint 72, LL): 0.06008
- UL49 (P16786) protein level (timepoint 72, LL): 0.1643
- UL69 (P16749) protein level (timepoint 72, LL): 0.2062
- UL70 (P17149) protein level (timepoint 72, LL): 0.4194
- UL83 (P06725) protein level (timepoint 72, LL): 0.02048
- UL132 (P69338) protein level (timepoint 72, LL): 0.1287
- US15 (P09718) protein level (timepoint 72, LL): 0.4326
- CVC2 (P16726) protein level (timepoint 96, DE): 0.1714
- DBP (P17147) protein level (timepoint 96, DE): 0.7941
- HELI (P16736) protein level (timepoint 96, DE): 0.8017
- IR01 (P09710) protein level (timepoint 96, DE): 0.4575
- NEC1 (P16794) protein level (timepoint 96, DE): 0.0869
- NEC2 (P16791) protein level (timepoint 96, DE): 0.2886
- RIR1 (P16782) protein level (timepoint 96, DE): 0.2098
- TRM1 (P16724) protein level (timepoint 96, DE): 0.3134
- UL4 (P17146) protein level (timepoint 96, DE): 0.2128
- UL26 (P16762) protein level (timepoint 96, DE): 0.2828
- UL32 (P08318) protein level (timepoint 96, DE): 0.1168
- UL34 (P16812) protein level (timepoint 96, DE): 0.2231
- UL35 (P16766) protein level (timepoint 96, DE): 0.1252
- UL38 (P16779) protein level (timepoint 96, DE): 0.6672
- UL44 (P16790) protein level (timepoint 96, DE): 0.176
- UL48 (P16785) protein level (timepoint 96, DE): 0.2807
- UL54 (P08546) protein level (timepoint 96, DE): 0.9075
- UL71 (P16823) protein level (timepoint 96, DE): 0.4754
- UL78 (P16751) protein level (timepoint 96, DE): 0.4235
- UL84 (P16727) protein level (timepoint 96, DE): 0.2328
- UL95 (P16801) protein level (timepoint 96, DE): 0.312
- UL96 (P16787) protein level (timepoint 96, DE): 0.4112
- UL97 (P16788) protein level (timepoint 96, DE): 0.3037
- UL98 (P16789) protein level (timepoint 96, DE): 0.4674
- UL102 (P16827) protein level (timepoint 96, DE): 0.9006
- UL104 (P16735) protein level (timepoint 96, DE): 0.3067
- UL112/UL113 (P17151) protein level (timepoint 96, DE): 0.5114
- UL114 (P16769) protein level (timepoint 96, DE): 0.7883
- UL119/UL118 (P16739) protein level (timepoint 96, DE): 0.6695
- UL128 (P16837) protein level (timepoint 96, DE): 0.1937
- US8 (P09730) protein level (timepoint 96, DE): 0.6801
- US9 (P09729) protein level (timepoint 96, DE): 0.7084
- US12 (P09721) protein level (timepoint 96, DE): 0.4505
- US13 (P09720) protein level (timepoint 96, DE): 0.8895
- US14 (P09719) protein level (timepoint 96, DE): 0.3447
- US18 (P69334) protein level (timepoint 96, DE): 0.9283
- US22 (P09722) protein level (timepoint 96, DE): 0.6231
- US23 (P09701) protein level (timepoint 96, DE): 0.5304
- US24 (P09700) protein level (timepoint 96, DE): 0.485
- US34 (P09709) protein level (timepoint 96, DE): 0.2125
- gB (P06473) protein level (timepoint 96, DE): 0.285
- IRS1 (P09715) protein level (timepoint 96, IE): 0.7821
- TRS1 (P09695) protein level (timepoint 96, IE): 0.7146
- UL13 (P16755) protein level (timepoint 96, IE): 0.2986
- UL36 (P16767) protein level (timepoint 96, IE): 0.5836
- UL37 (P16778) protein level (timepoint 96, IE): 0.8017
- UL122 (P19893) protein level (timepoint 96, IE): 0.1642
- UL123 (P13202) protein level (timepoint 96, IE): 0.4758
- CVC1 (P16799) protein level (timepoint 96, L): 0.2252
- GO (P16750) protein level (timepoint 96, L): 0.2443
- IR11 (P16809) protein level (timepoint 96, L): 0.9075
- MCP (P16729) protein level (timepoint 96, L): 0.1482
- SCP (Q7M6N6) protein level (timepoint 96, L): 0.1246
- TRM2 (P16792) protein level (timepoint 96, L): 0.19
- UL22A (P16845) protein level (timepoint 96, L): 0.3485
- UL25 (P16761) protein level (timepoint 96, L): 0.2353
- UL29 (P16764) protein level (timepoint 96, L): 0.6674
- UL30 (P16765) protein level (timepoint 96, L): 0.2355
- UL31 (P16848) protein level (timepoint 96, L): 0.2462
- UL43 (P16781) protein level (timepoint 96, L): 0.05313
- UL52 (P16793) protein level (timepoint 96, L): 0.3224
- UL76 (P16725) protein level (timepoint 96, L): 0.1513
- UL79 (P16752) protein level (timepoint 96, L): 0.3299
- UL80 (P16753) protein level (timepoint 96, L): 0.2674
- UL82 (P06726) protein level (timepoint 96, L): 0.2566
- UL87 (P16730) protein level (timepoint 96, L): 0.2646
- UL88 (P16731) protein level (timepoint 96, L): 0.3926
- UL94 (P16800) protein level (timepoint 96, L): 0.2776
- UL99 (P13200) protein level (timepoint 96, L): 0.1753
- UL103 (P16734) protein level (timepoint 96, L): 0.2489
